Results as given in US6617166B2, “Measurement of accelerated whole blood clotting time” (Prophylaxis Limited, priority 1999, dated 2003).
Values joined by “and” are separate entries in the source; they are usually repeats but may differ in a detail not shown here. Equal values may be shown once. Marks after values point to notes of the source that are not given here.

Tests used:
native whole blood = test: Accelerated whole blood clotting time (AWBCT), native blood; type: cell-based
Procedure: (§1) Whilst native blood is tested immediately after collection, for example, within two minutes, citrated blood may be stored for a longer period, before being recalcified immediately before the test is conducted. The interval between blood collection and testing may be on the order of one hour. It should be noted that shorter collection intervals give more reliable results.
(§2) The test is performed on native freshly drawn venous blood, or recalcified citrated blood or heparinised blood.
(§3) 100 μL of saline control or a range of concentration of a platelet agonists are added to the wells of a coagulometer and then 200 μL of native or RCCWB whole blood added and the coagulation time recorded. The potential agonists are; collagen, ADP, adrenalin, platelet activating factor, thrombin. It is anticipated that the agonist appropriate for specific roles will emerge in the course of clinical studies.
(§4) Numbers are the time to coagulation in seconds. The results given are the averages of duplicates, unless otherwise indicated by an asterix, (corresponding to single coagulation times where spurious results have not been averaged).

[1] = test system: recalcified citrated whole blood; test: Accelerated whole blood clotting time (AWBCT), recalcified citrated whole blood (RCCWB); type: cell-based
Procedure: Comparison of the results using native blood and citrated blood was made. 9 parts of citrated blood was added to 1 part calcium n chloride 133 mM, mixed and aliquotes of the recalcified citrated blood added to the wells of the coagulometer containing duplicates of saline control and dilutions of collagen. A concentration of […] calcium chloride is considered to be optimal; but concentrations in the range of, for example, 110-140 mM may be used. However, it should be noted that the length and un-reliability of coagulation times increase with concentrations further from the optimum, especially with higher values.
as §1, §2, §3, §4

Low Molecular Weight Heparin [LMWH]
time to coagulation (AWBCT) (native whole blood; LMWH 0.25 u/ml, collagen 0.125 mg/ml): 233 s
time to coagulation (AWBCT) (native whole blood; LMWH 0.25 u/ml, collagen 0.25 mg/ml): 224 s
time to coagulation (AWBCT) (native whole blood; LMWH 0.25 u/ml, collagen 0.5 mg/ml): 204* seconds
time to coagulation (AWBCT) (native whole blood; LMWH 0.25 u/ml, collagen 1.0 mg/ml): 64 s
time to coagulation (AWBCT) (native whole blood; LMWH 0.25 u/ml, saline): 500+ seconds
time to coagulation (AWBCT) (native whole blood; LMWH 0.5 u/ml, collagen 0.125 mg/ml): 226 s
time to coagulation (AWBCT) (native whole blood; LMWH 0.5 u/ml, collagen 0.25 mg/ml): 228 s
time to coagulation (AWBCT) (native whole blood; LMWH 0.5 u/ml, collagen 0.5 mg/ml): 41 s
time to coagulation (AWBCT) (native whole blood; LMWH 0.5 u/ml, collagen 1.0 mg/ml): 46 s
time to coagulation (AWBCT) (native whole blood; LMWH 0.5 u/ml, saline): 500+ seconds
time to coagulation (AWBCT) (native whole blood; LMWH 1.0 u/ml, collagen 0.125 mg/ml): 318 s
time to coagulation (AWBCT) (native whole blood; LMWH 1.0 u/ml, collagen 0.25 mg/ml): 259 s
time to coagulation (AWBCT) (native whole blood; LMWH 1.0 u/ml, collagen 0.5 mg/ml): 48* seconds
time to coagulation (AWBCT) (native whole blood; LMWH 1.0 u/ml, collagen 1.0 mg/ml): 27* seconds
time to coagulation (AWBCT) (native whole blood; LMWH 1.0 u/ml, saline): 500+ seconds
time to coagulation (AWBCT) (native whole blood; LMWH 2.0 u/ml, collagen 0.125 mg/ml): 500+ seconds
time to coagulation (AWBCT) (native whole blood; LMWH 2.0 u/ml, collagen 0.25 mg/ml): 500+ seconds
time to coagulation (AWBCT) (native whole blood; LMWH 2.0 u/ml, collagen 0.5 mg/ml): 500+ seconds
time to coagulation (AWBCT) (native whole blood; LMWH 2.0 u/ml, collagen 1.0 mg/ml): 295 s
time to coagulation (AWBCT) (native whole blood; LMWH 2.0 u/ml, saline): 500+ seconds

CC(=O)Oc1ccccc1C(=O)O [Aspirin]
time to coagulation (AWBCT) ([1]; RCCWB, aspirin 40 μg/ml, collagen 0.125 mg/ml, collection interval +135 min): 275 s
time to coagulation (AWBCT) ([1]; RCCWB, aspirin 40 μg/ml, collagen 0.25 mg/ml, collection interval +135 min): 274 s
time to coagulation (AWBCT) ([1]; RCCWB, aspirin 40 μg/ml, collagen 0.5 mg/ml, collection interval +135 min): 216 s
time to coagulation (AWBCT) ([1]; RCCWB, aspirin 40 μg/ml, collagen 1.0 mg/ml, collection interval +135 min): 184 s
time to coagulation (AWBCT) ([1]; RCCWB, aspirin 40 μg/ml, saline, collection interval +135 min): 500 s
time to coagulation (AWBCT) ([1]; RCCWB, aspirin 80 μg/ml, collagen 0.125 mg/ml, collection interval +106 min): 224 s
time to coagulation (AWBCT) ([1]; RCCWB, aspirin 80 μg/ml, collagen 0.25 mg/ml, collection interval +106 min): 236 s
time to coagulation (AWBCT) ([1]; RCCWB, aspirin 80 μg/ml, collagen 0.5 mg/ml, collection interval +106 min): 218* seconds
time to coagulation (AWBCT) ([1]; RCCWB, aspirin 80 μg/ml, collagen 1.0 mg/ml, collection interval +106 min): 212 s
time to coagulation (AWBCT) ([1]; RCCWB, aspirin 80 μg/ml, saline, collection interval +106 min): 468 s

collagen
time to coagulation (AWBCT) (native whole blood; collagen 0.125 mg/ml): 178 s and 134 s and 140 s and 149 s
time to coagulation (AWBCT) (native whole blood; collagen 0.25 mg/ml): 162 s and 111 s and 125 s and 137 s
time to coagulation (AWBCT) (native whole blood; collagen 1.0 mg/ml): 34 seconds and 28* seconds and 24 seconds and 29 seconds
time to coagulation (AWBCT) ([1]; RCCWB 50 mins later, collagen 0.125 mg/ml): 190 s
time to coagulation (AWBCT) ([1]; RCCWB 50 mins later, collagen 0.25 mg/ml): 184 s
time to coagulation (AWBCT) ([1]; RCCWB 50 mins later, collagen 0.5 mg/ml): 181 s
time to coagulation (AWBCT) ([1]; RCCWB 50 mins later, collagen 1.0 mg/ml): 55 s
time to coagulation (AWBCT) ([1]; RCCWB 75 mins later, collagen 0.125 mg/ml): 202 s
time to coagulation (AWBCT) ([1]; RCCWB 75 mins later, collagen 0.25 mg/ml): 209 s
time to coagulation (AWBCT) ([1]; RCCWB 75 mins later, collagen 0.5 mg/ml): 70 s
time to coagulation (AWBCT) ([1]; RCCWB 75 mins later, collagen 1.0 mg/ml): 50 s
time to coagulation (AWBCT) ([1]; RCCWB, collagen 0.125 mg/ml): 166 s and 159 s and 177 s and 178 s
time to coagulation (AWBCT) ([1]; RCCWB, collagen 0.25 mg/ml): 185 seconds and 151 seconds and 165 seconds and 161* seconds
time to coagulation (AWBCT) ([1]; RCCWB, collagen 1.0 mg/ml): 44 s and 49 s and 39 s and 56 s

Heparin
time to coagulation (AWBCT) ([1]; RCCWB + Heparin 1.25 u/ml, collagen 0.125 mg/ml): 325* seconds
time to coagulation (AWBCT) ([1]; RCCWB + Heparin 1.25 u/ml, collagen 0.25 mg/ml): 302 s
time to coagulation (AWBCT) ([1]; RCCWB + Heparin 1.25 u/ml, collagen 0.5 mg/ml): 71 s
time to coagulation (AWBCT) ([1]; RCCWB + Heparin 1.25 u/ml, collagen 1.0 mg/ml): 54 s
time to coagulation (AWBCT) ([1]; RCCWB + Heparin 1.25 u/ml, saline): 500+ seconds
time to coagulation (AWBCT) ([1]; RCCWB + Heparin 2.5 u/ml, collagen 0.125 mg/ml): 340 s
time to coagulation (AWBCT) ([1]; RCCWB + Heparin 2.5 u/ml, collagen 0.25 mg/ml): 405 s
time to coagulation (AWBCT) ([1]; RCCWB + Heparin 2.5 u/ml, collagen 0.5 mg/ml): 61 s
time to coagulation (AWBCT) ([1]; RCCWB + Heparin 2.5 u/ml, collagen 1.0 mg/ml): 41 s
time to coagulation (AWBCT) ([1]; RCCWB + Heparin 2.5 u/ml, saline): 600+ seconds
time to coagulation (AWBCT) ([1]; RCCWB, Heparin 5.0 u/ml, collagen 0.125 mg/ml): 600+ seconds
time to coagulation (AWBCT) ([1]; RCCWB, Heparin 5.0 u/ml, collagen 0.25 mg/ml): 600+ seconds
time to coagulation (AWBCT) ([1]; RCCWB, Heparin 5.0 u/ml, collagen 0.5 mg/ml): 48 s
time to coagulation (AWBCT) ([1]; RCCWB, Heparin 5.0 u/ml, collagen 1.0 mg/ml): 31 s
time to coagulation (AWBCT) ([1]; RCCWB, Heparin 5.0 u/ml, saline): 600+ seconds
time to coagulation (AWBCT) ([1]; RCCWB, Heparin 10 u/ml, collagen 0.125 mg/ml): 600+ seconds
time to coagulation (AWBCT) ([1]; RCCWB, Heparin 10 u/ml, collagen 0.25 mg/ml): 600+ seconds
time to coagulation (AWBCT) ([1]; RCCWB, Heparin 10 u/ml, collagen 0.5 mg/ml): 34 s
time to coagulation (AWBCT) ([1]; RCCWB, Heparin 10 u/ml, collagen 1.0 mg/ml): 27 s
time to coagulation (AWBCT) ([1]; RCCWB, Heparin 10 u/ml, saline): 600+ seconds

Nc1ncnc2c1ncn2[C@@H]1O[C@H](COP(=O)(O)OP(=O)(O)O)[C@@H](O)[C@H]1O [ADP, adenosine diphosphate]
time to coagulation (AWBCT) (native whole blood; ADP 6.25 μM): 265 s
time to coagulation (AWBCT) (native whole blood; ADP 12.5 μM): 269 s
time to coagulation (AWBCT) (native whole blood; ADP 25 μM): 272 s
time to coagulation (AWBCT) (native whole blood; ADP 50 μM): 255 s
time to coagulation (AWBCT) ([1]; recalcified whole blood, ADP 12.5 μM, collection interval +65 mins): 329 s
time to coagulation (AWBCT) ([1]; recalcified whole blood, ADP 25 μM, collection interval +65 mins): 358 s
time to coagulation (AWBCT) ([1]; recalcified whole blood, ADP 50 μM, collection interval +65 mins): 348 s
time to coagulation (AWBCT) ([1]; recalcified whole blood, ADP 100 μM, collection interval +65 mins): 341 s
